Like-named read-outs stand apart in the source and are kept apart here.
Experiments:
Type in all cases: physicochemical
[1] = Competition experiment between anhydrates and solvates and solvent activity experiment
[2] = Accelerated stability testing; conditions: 40° C.±2° C./75%±5% RH
Procedure: (2) Accelerated Stability Testing
(§1) Packaging: Simulated the commercial packaging (using a pharmaceutical-grade low-density polyethylene bag as the inner packaging and a polyester/aluminum/polyethylene composite bag for pharmaceutical packaging as the outer packaging)
Investigation conditions: 40° C.±2° C./75%±5% RH

[3] = Long-term stability testing; conditions: 25° C.±2° C./60%±5% RH
Procedure: (3) Long-Term Stability Testing
as §1
Investigation conditions: 25° C.±2° C./60%±5% RH

[4] = Dynamic vapor sorption (DVS)
Procedure: 4. Dynamic Vapor Sorption (DVS)
Instrument: TA Instruments Q5000 SA
Detection method: 20 to 50 mg of the sample was placed in a tared sample basket and automatically weighed, and DVS testing was performed according to the parameters in Table 7: Step Time: 60 min; Equilibration Time per RH %: 1 hour; Total Gas Flow Rate: 200 sccm; Gradient mode: 0%-90%-0% humidity variation, with a humidity variation amount of 10% for each gradient level between 0% and 90%, and gradient endpoint was determined by dm/dt<0.01% maintained for 10 minutes.

[5] = Stability test, placed open 7 days (HPLC purity, XRPD); grinding or crushing; conditions: for remaining at […]: solid state, open, 7 days, read-out: Purity (Peak area %) 7 days
From the text: Subsequently, the samples after 7 days were respectively detected by HPLC and XRPD to determine their chemical and physical stabilities.

[6] = Stress testing (high temperature, high humidity, illumination); conditions: for remaining at […] / remaining at 336 h / remaining at 720 h: read-out: Content
[7] = 60° C., 92.5% RH and 40° C./75% RH for 7 days
[8] = High Humidity (92.5% RH), 7 days
[9] = High Humidity (92.5% RH), 14 days
[10] = High Humidity (92.5% RH), 30 days
[11] = High Temperature (60° C.), 7 days
[12] = High Temperature (60° C.), 14 days
[13] = High Temperature (60° C.), 30 days
[14] = Illumination Testing 45001x ± 5001x, 7 days
[15] = Illumination Testing 45001x ± 5001x, 14 days
[16] = Illumination Testing 45001x ± 5001x, 30 days

With `CC(=O)c1c(C)c2cnc(Nc3ccc4c(c3)OC[C@@H]3CN(C5CCN(C)CC5)CCN43)nc2n(C2CCCC2)c1=O` [listing 1 of 4 here] the “Test Results (crystalline form by XRPD)” value ([1]; competition experiment, n-Butanol, room temperature) was “crystalline form A-I” and the “Test Results (crystalline form by XRPD)” value ([1]; competition experiment, n-Butanol/Anisole (v:v = 1:1), room temperature) was “crystalline form A-I”.

In the case of `CC(=O)c1c(C)c2cnc(Nc3ccc4c(c3)OC[C@@H]3CN(C5CCN(C)CC5)CCN43)nc2n(C2CCCC2)c1=O` [listing 2 of 4 here], the “Description Appearance” value ([2]; 0 months) is reported as “Yellow”, the Total impurities ([2]; 0 months) is reported as 0.84% and the crystalline form ([2]; 0 months) is reported as “crystalline”. The loss on drying ([2]; 0 months) was 0.03%, the “Description Appearance” value ([2]; 1 month) was “Yellow” and the Total impurities ([2]; 1 month) was 0.80%. The loss on drying ([2]; 1 month) was 0.04%, the “Description Appearance” value ([2]; 2 months) was “Yellow” and the Total impurities ([2]; 2 months) was 0.82%. The loss on drying ([2]; 2 months) was 0.02%, the “Description Appearance” value ([2]; 3 months) was “Yellow” and the Total impurities ([2]; 3 months) was 0.85%. The crystalline form ([2]; 3 months) was “Unchanged”, the loss on drying ([2]; 3 months) was 0.02% and the “Description Appearance” value ([2]; 6 months) was “Yellow”. For the same compound, the Total impurities ([2]; 6 months) was 0.77%, the crystalline form ([2]; 6 months) was “Unchanged” and the loss on drying ([2]; 6 months) was 0.08%. It also gave a remaining at 720 h ([2]; solid, 75% rh storage, 1 month, read-out: Measured content) of 100%, a remaining at 1440 h ([2]; solid, 75% rh storage, 2 months, read-out: Measured content) of 101% and a remaining at 2160 h ([2]; solid, 75% rh storage, 3 months, read-out: Measured content) of 101%. The remaining at 4320 h ([2]; solid, 75% rh storage, 6 months, read-out: Measured content) was 101%, the “Description Appearance” value ([3]; 0 months) was “Yellow” and the Total impurities ([3]; 0 months) was 0.84%. The crystalline form ([3]; 0 months) was “crystalline”, the loss on drying ([3]; 0 months) was 0.03% and the “Description Appearance” value ([3]; 3 months) was “Yellow solid”. For the same compound, the Total impurities ([3]; 3 months) was 0.89%, the crystalline form ([3]; 3 months) was “Unchanged” and the loss on drying ([3]; 3 months) was 0.02%. For the same compound, the “Description Appearance” value ([3]; 6 months) was “Yellow solid”, the Total impurities ([3]; 6 months) was 0.75% and the crystalline form ([3]; 6 months) was “Unchanged”. The loss on drying ([3]; 6 months) was 0.05%, the “Description Appearance” value ([3]; 9 months) was “Yellow solid” and the Total impurities ([3]; 9 months) was 0.73%. The crystalline form ([3]; 9 months) was “Unchanged”, the loss on drying ([3]; 9 months) was 0.05% and the “Description Appearance” value ([3]; 12 months) was “Yellow solid”. For the same compound, the Total impurities ([3]; 12 months) was 0.78%, the crystalline form ([3]; 12 months) was “Unchanged” and the loss on drying ([3]; 12 months) was 0.05%. The “Description Appearance” value ([3]; 18 months) was “Yellow solid”, the Total impurities ([3]; 18 months) was 0.71% and the crystalline form ([3]; 18 months) was “Unchanged”. It also gave a loss on drying ([3]; 18 months) of 0.03%, a remaining at 2160 h ([3]; solid, 60% rh storage, 3 months, read-out: Measured content) of 101% and a remaining at 4320 h ([3]; solid, 60% rh storage, 6 months, read-out: Measured content) of 101%. It also gave a remaining at 6480 h ([3]; solid, 60% rh storage, 9 months, read-out: Measured content) of 99.6%, a remaining at 8640 h ([3]; solid, 60% rh storage, 12 months, read-out: Measured content) of 101% and a remaining at 12960 h ([3]; solid, 60% rh storage, 18 months, read-out: Measured content) of 98.7%.

In the case of `CC(=O)c1c(C)c2cnc(Nc3ccc4c(c3)OC[C@@H]3CN(C5CCN(C)CC5)CCN43)nc2n(C2CCCC2)c1=O` [crystalline form A-I], the “hygroscopicity (DVS)” value ([4]; 0%-90% RH) is reported as “non-hygroscopic”, the “weight change (DVS)” value ([4]; across 0%-90% RH) is reported as “approximately 0.17%” and the “Purity (Peak area %) 0 day” value ([5]; 0 day) is reported as 99.16 Peak area %. For the same compound, the “chemical stability (HPLC)” value [5, 7] was “chemically stable”, the “crystalline form by XRPD after 7 days under the three conditions” value [5, 7] was “remained unchanged” and the “crystalline form after grinding or crushing” value ([5]; grinding or crushing) was “remained unchanged”. It also gave a remaining at […] ([5]; 40° C./75% RH) of 99.2%, a remaining at […] ([5]; 60° C.) of 99.2% and a remaining at […] ([5]; 92.5% RH) of 99.2%. For the same compound, the “Description Appearance” value ([6]; 0 Day) was “Yellow”, the crystalline form ([6]; 0 Day) was “crystalline” and the “Description Appearance” value [6, 8] was “Yellow”. The remaining at […] [6, 8] was 100%, the “Description Appearance” value [6, 9] was “Yellow” and the remaining at 336 h [6, 9] was 99.6%. For the same compound, the “Description Appearance” value [6, 10] was “Yellow”, the remaining at 720 h [6, 10] was 101% and the “Description Appearance” value [6, 11] was “Yellow”. For the same compound, the remaining at […] [6, 11] was 100%, the “Description Appearance” value [6, 12] was “Yellow” and the remaining at 336 h [6, 12] was 101%. The “Description Appearance” value [6, 13] was “Yellow”, the remaining at 720 h [6, 13] was 100% and the “Description Appearance” value [6, 14] was “Yellow”. It also gave a Total impurities [6, 14] of 0.76%, a loss on drying [6, 14] of 0.07% and a remaining at […] [6, 14] of 101%. The “Description Appearance” value [6, 15] was “Yellow”, the Total impurities [6, 15] was 0.79% and the loss on drying [6, 15] was 0.06%. The remaining at 336 h [6, 15] was 100%, the “Description Appearance” value [6, 16] was “Yellow” and the Total impurities [6, 16] was 0.84%. The crystalline form [6, 16] was “Unchanged”, the loss on drying [6, 16] was 0.07% and the remaining at 720 h [6, 16] was 100%. For the same compound, the “change in the description” value ([6]; all stress test conditions) was “no significant change”, the “change in the hygroscopic weight gain” value ([6]; high-humidity conditions) was “no significant change” and the “relevant substances compared with 0 month” value ([6]; high-humidity conditions) was “remained unchanged”. For the same compound, the “change in relevant substances” value ([6]; high-temperature conditions) was “no significant change”.

With `CC(=O)c1c(C)c2cnc(Nc3ccc4c(c3)OC[C@@H]3CN(C5CCN(C)CC5)CCN43)nc2n(C2CCCC2)c1=O` [listing 3 of 4 here] the “Test Results (crystalline form by XRPD)” value ([1]; solvent activity experiment, 20% Trifluoroethanol (v/v)) was “crystalline form A-I”, the “Test Results (crystalline form by XRPD)” value ([1]; solvent activity experiment, 50% Trifluoroethanol (v/v)) was “crystalline form A-I” and the “Test Results (crystalline form by XRPD)” value ([1]; solvent activity experiment, 80% Trifluoroethanol (v/v)) was “crystalline form A-II”.

With `CC(=O)c1c(C)c2cnc(Nc3ccc4c(c3)OC[C@@H]3CN(C5CCN(C)CC5)CCN43)nc2n(C2CCCC2)c1=O` [crystalline form F] the “XRPD pattern / crystalline form after the DVS test” value ([4]; after DVS test) was “did not change” and the “moisture absorption (DVS)” value ([4]; at 80% RH) was “approximately 3.8%”.

For `CC(=O)c1c(C)c2cnc(Nc3ccc4c(c3)OC[C@@H]3CN(C5CCN(C)CC5)CCN43)nc2n(C2CCCC2)c1=O` [listing 4 of 4 here], the “Test Results (crystalline form by XRPD)” value ([1]; solvent activity experiment, 20% Dimethyl sulfoxide (v/v)) was “crystalline form A-I”, the “Test Results (crystalline form by XRPD)” value ([1]; solvent activity experiment, 50% Dimethyl sulfoxide (v/v)) was “crystalline form A-I” and the “Test Results (crystalline form by XRPD)” value ([1]; solvent activity experiment, 80% Dimethyl sulfoxide (v/v)) was “crystalline form A-I”.

From patent US20260285879A1, “CDK INHIBITOR AND CRYSTAL FORM OF PHARMACEUTICALLY ACCEPTABLE SALT THEREOF, AND USE THEREOF” (priority 2023, published 2026)
